Results: PubChem BioAssay AID2060902 (Molecular Pharmacology Branch, DTP, NCI, 2025)

Tested on: 485368-065-R3-J5-PDC spheroids with HUVEC/MSC, viability
Test: Anticancer human tumor 485368-065-R3-J5-PDC patient-derived pancreatic carcinoma cell line growth inhibition [RAS]
Conditions: for IC50: curve of first compound; for viability, T/C: stronger effect = lower value
Method in brief: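 Agents were tested in combination matrices in half-log decrements from a top concentration at or near clinical Cmax (10 microM if undetermined). Targets were multi-cell spheroids of tumour lines plus HUVEC and MSC stromal cells.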

[1] = second compound 0.000949 µM, first compound 0.0316 µM
[2] = second compound 0.000949 µM, first compound 0.1 µM
[3] = second compound 0.000949 µM, first compound 0.316 µM
[4] = second compound 0.000949 µM, first compound 1 µM
[5] = second compound 0.000949 µM, first compound 3.16 µM
[6] = second compound 0.000949 µM, first compound 10 µM
[7] = second compound 0.003 µM, first compound 0.0316 µM
[8] = second compound 0.003 µM, first compound 0.1 µM
[9] = second compound 0.003 µM, first compound 0.316 µM
[10] = second compound 0.003 µM, first compound 1 µM
[11] = second compound 0.003 µM, first compound 3.16 µM
[12] = second compound 0.003 µM, first compound 10 µM
[13] = second compound 0.00949 µM, first compound 0.0316 µM
[14] = second compound 0.00949 µM, first compound 0.1 µM
[15] = second compound 0.00949 µM, first compound 0.316 µM
[16] = second compound 0.00949 µM, first compound 1 µM
[17] = second compound 0.00949 µM, first compound 3.16 µM
[18] = second compound 0.00949 µM, first compound 10 µM
[19] = second compound 0.03 µM, first compound 0.0316 µM
[20] = second compound 0.03 µM, first compound 0.1 µM
[21] = second compound 0.03 µM, first compound 0.316 µM
[22] = second compound 0.03 µM, first compound 1 µM
[23] = second compound 0.03 µM, first compound 3.16 µM
[24] = second compound 0.03 µM, first compound 10 µM
[25] = second compound 0.0949 µM, first compound 0.0316 µM
[26] = second compound 0.0949 µM, first compound 0.1 µM
[27] = second compound 0.0949 µM, first compound 0.316 µM
[28] = second compound 0.0949 µM, first compound 1 µM
[29] = second compound 0.0949 µM, first compound 3.16 µM
[30] = second compound 0.0949 µM, first compound 10 µM
[31] = second compound 0.3 µM, first compound 0.0316 µM
[32] = second compound 0.3 µM, first compound 0.1 µM
[33] = second compound 0.3 µM, first compound 0.316 µM
[34] = second compound 0.3 µM, first compound 1 µM
[35] = second compound 0.3 µM, first compound 3.16 µM
[36] = second compound 0.3 µM, first compound 10 µM
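Further: spheroids exposed to agents for seven days before readout.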

## CC(=O)OC12COC1CC(O)C1(C)C(=O)C(O)C3=C(C)C(OC(=O)C(O)C(NC(=O)OC(C)(C)C)c4ccccc4)CC(O)(C(OC(=O)c4ccccc4)C21)C3(C)C (centres undefined) + CCn1c(-c2cc(N3CCN(C)CC3)cnc2C(C)OC)c2c3cc(ccc31)-c1csc(n1)CC(NC(=O)C1CC1C)C(=O)N1CCCC(N1)C(=O)OCC(C)(C)C2
Second compound 0.000949 µM
  IC50: < 31.6 nM
Second compound 0.003 µM
  IC50: < 31.6 nM
Second compound 0.00949 µM
  IC50: < 31.6 nM
Second compound 0.03 µM
  IC50: < 31.6 nM
Second compound 0.0949 µM
  IC50: < 31.6 nM
Second compound 0.3 µM
  IC50: < 31.6 nM
[1]
  viability, T/C: 11.7%
[2]
  viability, T/C: 10.4%
[3]
  viability, T/C: 12.1%
[4]
  viability, T/C: 14.3%
[5]
  viability, T/C: 15.2%
[6]
  viability, T/C: 19.9%
[7]
  viability, T/C: 10.7%
[8]
  viability, T/C: 13.2%
[9]
  viability, T/C: 12.2%
[10]
  viability, T/C: 14.1%
[11]
  viability, T/C: 15.3%
[12]
  viability, T/C: 13.6%
[13]
  viability, T/C: 9.77%
[14]
  viability, T/C: 12.6%
[15]
  viability, T/C: 10%
[16]
  viability, T/C: 8.97%
[17]
  viability, T/C: 11.4%
[18]
  viability, T/C: 10.5%
[19]
  viability, T/C: 7.89%
[20]
  viability, T/C: 8.87%
[21]
  viability, T/C: 8.33%
[22]
  viability, T/C: 9.73%
[23]
  viability, T/C: 10.6%
[24]
  viability, T/C: 10.7%
[25]
  viability, T/C: 7.57%
[26]
  viability, T/C: 8.27%
[27]
  viability, T/C: 7.87%
[28]
  viability, T/C: 7.97%
[29]
  viability, T/C: 10.9%
[30]
  viability, T/C: 8.11%
[31]
  viability, T/C: 7.3%
[32]
  viability, T/C: 7.09%
[33]
  viability, T/C: 7.44%
[34]
  viability, T/C: 8.55%
[35]
  viability, T/C: 10.2%
[36]
  viability, T/C: 6.81%

## CCC(CC)c1cc(NC2CCC(N)C2)n2nccc2n1 (centres undefined) + CCn1c(-c2cc(N3CCN(C)CC3)cnc2C(C)OC)c2c3cc(ccc31)-c1csc(n1)CC(NC(=O)C1CC1C)C(=O)N1CCCC(N1)C(=O)OCC(C)(C)C2
Second compound 0.000949 µM
  IC50: 1050 nM
Second compound 0.003 µM
  IC50: < 31.6 nM
Second compound 0.00949 µM
  IC50: < 31.6 nM
Second compound 0.03 µM
  IC50: < 31.6 nM
Second compound 0.0949 µM
  IC50: < 31.6 nM
Second compound 0.3 µM
  IC50: < 31.6 nM
[1]
  viability, T/C: 42%
[2]
  viability, T/C: 36.8%
[3]
  viability, T/C: 56.3%
[4]
  viability, T/C: 72.7%
[5]
  viability, T/C: 3.44%
[6]
  viability, T/C: 5.24%
[7]
  viability, T/C: 23.8%
[8]
  viability, T/C: 24.9%
[9]
  viability, T/C: 32.9%
[10]
  viability, T/C: 38.9%
[11]
  viability, T/C: 3.26%
[12]
  viability, T/C: 6.21%
[13]
  viability, T/C: 15.9%
[14]
  viability, T/C: 21.2%
[15]
  viability, T/C: 23.5%
[16]
  viability, T/C: 35.6%
[17]
  viability, T/C: 2.54%
[18]
  viability, T/C: 5.71%
[19]
  viability, T/C: 14.5%
[20]
  viability, T/C: 14.5%
[21]
  viability, T/C: 20.1%
[22]
  viability, T/C: 30.4%
[23]
  viability, T/C: 2.68%
[24]
  viability, T/C: 6.01%
[25]
  viability, T/C: 8.49%
[26]
  viability, T/C: 11.9%
[27]
  viability, T/C: 15.1%
[28]
  viability, T/C: 30.3%
[29]
  viability, T/C: 3.16%
[30]
  viability, T/C: 6.24%
[31]
  viability, T/C: 8.25%
[32]
  viability, T/C: 12.6%
[33]
  viability, T/C: 14.8%
[34]
  viability, T/C: 25.4%
[35]
  viability, T/C: 2.42%
[36]
  viability, T/C: 4.74%
